Measured values published in patent US20250214983A1, “1,3,4-OXADIAZOLE TRIAZOLE COMPOUNDS AS HISTONE DEACETYLASE 6 INHIBITOR, AND PHARMACEUTICAL COMPOSITION COMPRISING THE SAME” (Chong Kun Dang Pharmaceutical Corp., priority 2022, published 2025).

How the values were obtained:
[1] = biological target: T1, human recombinant HDAC1 (Homo sapiens, UniProt Q13547); test: HDAC1 enzyme activity inhibition (HDAC Fluorimetric Drug Discovery Kit); assay type: biochemical; settings: human recombinant HDAC1, Fluor de Lys substrate 10 μM, 30° C. 60 minutes
T1 construct: purchased Enzo Life Science, Inc. BML-SE456
Procedure: (§1) An experiment was conducted to identify the selectivity of the 1,3,4-oxadiazole triazole compound of the present invention to HDAC6 through an experiment on HDAC1 and HDAC6 enzyme activity inhibition.
(§2) The HDAC enzyme activity was measured with HDAC Fluorimetric Drug Discovery Kit (BML-AK511, 516) of Enzo Life Science, Inc. For the test on the HDAC1 enzyme activity, human recombinant HDAC1 (BML-SE456) was used as an enzyme source and Fluor de Lys®-“SIRT1 (BNL-KI177)” was used as a substrate. A 5-fold dilution of the compound was divided into a 96-well plate, after which 0.3 μg of the enzyme and 10 μM of the substrate were inserted into each well and subjected to reaction at 30° C. for 60 minutes, such that Fluor de Lys® Developer II (BML-KI176) was inserted thereinto and subjected to reaction for 30 minutes and finished. After that, a fluorescence value (Ex 360, Em 460) was measured with a multi-plate reader (Flexstation 3, Molecular Device). An experiment on HDAC6 enzyme was conducted in accordance with the same protocol as in the HDAC1 enzyme activity test method by using human recombinant HDAC6 (382180) of Calbiochem Inc. For final result values, each IC50 value was calculated with GraphPad Prism 4.0 program.

[2] = biological target: T2, human recombinant HDAC6 (Homo sapiens, UniProt Q9UBN7); test: HDAC6 enzyme activity inhibition (HDAC Fluorimetric Drug Discovery Kit); assay type: biochemical; settings: HDAC1 versus HDAC6
T2 construct: purchased Calbiochem Inc. 382180
T2 sequence (Q9UBN7 1-1215): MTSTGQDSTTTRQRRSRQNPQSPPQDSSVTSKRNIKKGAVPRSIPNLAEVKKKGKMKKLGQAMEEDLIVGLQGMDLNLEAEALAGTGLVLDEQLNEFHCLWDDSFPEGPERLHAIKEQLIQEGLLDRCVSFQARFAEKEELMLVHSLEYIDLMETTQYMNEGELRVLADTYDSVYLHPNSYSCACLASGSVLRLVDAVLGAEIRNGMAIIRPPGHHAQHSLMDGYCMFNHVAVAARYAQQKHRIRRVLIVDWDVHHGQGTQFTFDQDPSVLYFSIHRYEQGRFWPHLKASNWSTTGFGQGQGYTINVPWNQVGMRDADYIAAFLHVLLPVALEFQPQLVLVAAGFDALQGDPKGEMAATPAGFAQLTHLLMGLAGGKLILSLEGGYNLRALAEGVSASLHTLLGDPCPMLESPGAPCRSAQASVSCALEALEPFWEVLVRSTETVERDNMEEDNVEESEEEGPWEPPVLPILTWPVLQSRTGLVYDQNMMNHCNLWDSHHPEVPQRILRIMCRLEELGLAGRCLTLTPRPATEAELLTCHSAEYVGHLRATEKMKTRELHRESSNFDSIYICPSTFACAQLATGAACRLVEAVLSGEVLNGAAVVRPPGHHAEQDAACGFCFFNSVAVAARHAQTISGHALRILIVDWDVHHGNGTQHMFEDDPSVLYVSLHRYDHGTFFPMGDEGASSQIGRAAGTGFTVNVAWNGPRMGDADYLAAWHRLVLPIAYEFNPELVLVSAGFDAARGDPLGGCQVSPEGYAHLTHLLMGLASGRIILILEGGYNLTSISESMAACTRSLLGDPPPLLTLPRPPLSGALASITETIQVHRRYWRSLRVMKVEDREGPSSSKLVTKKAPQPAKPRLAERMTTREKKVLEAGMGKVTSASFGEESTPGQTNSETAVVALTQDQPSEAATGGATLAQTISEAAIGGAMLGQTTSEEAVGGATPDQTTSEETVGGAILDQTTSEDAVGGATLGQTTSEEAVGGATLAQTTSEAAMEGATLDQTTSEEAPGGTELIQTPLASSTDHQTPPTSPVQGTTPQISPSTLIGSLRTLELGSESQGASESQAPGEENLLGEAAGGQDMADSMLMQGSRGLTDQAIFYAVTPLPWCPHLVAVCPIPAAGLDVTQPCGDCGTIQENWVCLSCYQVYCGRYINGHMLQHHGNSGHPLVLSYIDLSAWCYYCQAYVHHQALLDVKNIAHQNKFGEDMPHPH
Procedure: as §1, §2

T1 sequence (Q13547 whole entry): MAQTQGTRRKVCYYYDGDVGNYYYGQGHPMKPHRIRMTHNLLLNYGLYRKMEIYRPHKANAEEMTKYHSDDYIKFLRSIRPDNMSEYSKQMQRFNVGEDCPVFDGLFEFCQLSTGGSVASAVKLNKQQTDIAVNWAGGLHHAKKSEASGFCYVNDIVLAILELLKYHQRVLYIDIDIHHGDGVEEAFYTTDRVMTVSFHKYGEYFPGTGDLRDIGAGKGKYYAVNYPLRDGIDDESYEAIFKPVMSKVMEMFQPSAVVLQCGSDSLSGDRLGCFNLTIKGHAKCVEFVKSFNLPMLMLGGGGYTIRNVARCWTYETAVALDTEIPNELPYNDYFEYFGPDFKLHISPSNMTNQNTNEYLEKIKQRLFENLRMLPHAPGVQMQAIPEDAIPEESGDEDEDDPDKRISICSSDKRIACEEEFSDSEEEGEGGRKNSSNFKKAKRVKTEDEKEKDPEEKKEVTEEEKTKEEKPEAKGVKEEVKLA

Structure (SMILES)	IC50 [1] [µM]	HDAC6 selectivity (fold) [2] [fold]
FC(F)c1nnc(-c2ccc(Cn3cc(-c4ccc(CN5CCCC5)cn4)nn3)nc2)o1 [Compound 3, 2-(difluoromethyl)-5-(6-((4-(5-(pyrrolidin-1-ylmethyl)pyridin-2-yl)-1H-1,2,3-triazol-1-yl)methyl)pyridin-3-yl)-1,3,4-oxadiazole]	> 50	1712
CN(C)Cc1cc(-c2cn(Cc3ccc(-c4nnc(C(F)F)o4)cn3)nn2)cs1 [Compound 11, 1-(4-(1-((5-(5-(difluoromethyl)-1,3,4-oxadiazol-2-yl)pyridin-2-yl)methyl)-1H-1,2,3-triazol-4-yl)thiophen-2-yl)-N,N-dimethylmethanamine]	> 50	1577
FC(F)c1nnc(-c2ccc(Cn3cc(-c4csc(CN5CCC(F)(F)CC5)c4)nn3)nc2)o1 [Compound 16, 2-(difluoromethyl)-5-(6-((4-(5-((4,4-difluoropiperidin-1-yl)methyl)thiophen-3-yl)-1H-1,2,3-triazol-1-yl)methyl)pyridin-3-yl)-1,3,4-oxadiazole]	> 50	1237
CC1(C)CCN(Cc2ccc(-c3cn(Cc4ccc(-c5nnc(C(F)F)o5)cn4)nn3)nc2)CC1 [Compound 17, 2-(difluoromethyl)-5-(6-((4-(5-((4,4-dimethylpiperidin-1-yl)methyl)pyridin-2-yl)-1H-1,2,3-triazol-1-yl)methyl)pyridin-3-yl)-1,3,4-oxadiazole]	> 50	1466
Fc1ccc(CN2CCCCC2)cc1-c1cn(Cc2ccc(-c3nnc(C(F)F)o3)cn2)nn1 [Compound 18, 2-(difluoromethyl)-5-(6-((4-(2-fluoro-5-(piperidin-1-ylmethyl)phenyl)-1H-1,2,3-triazol-1-yl)methyl)pyridin-3-yl)-1,3,4-oxadiazole]	> 50	1845
CC1CCN(Cc2ccc(F)c(-c3cn(Cc4ccc(-c5nnc(C(F)F)o5)cn4)nn3)c2)CC1 [Compound 19, 2-(difluoromethyl)-5-(6-((4-(2-fluoro-5-((4-methylpiperidin-1-yl)methyl)phenyl)-1H-1,2,3-triazol-1-yl)methyl)pyridin-3-yl)-1,3,4-oxadiazole]	> 50	1492
CN(C)Cc1ccc(F)c(-c2cn(Cc3ccc(-c4nnc(C(F)F)o4)cn3)nn2)c1 [Compound 20, 1-(3-(1-((5-(5-(difluoromethyl)-1,3,4-oxadiazol-2-yl)pyridin-2-yl)methyl)-1H-1,2,3-triazol-4-yl)-4-fluorophenyl)-N,N-dimethylmethanamine]	> 50	1798
CN(C)Cc1cc(-c2cn(Cc3ccc(-c4nnc(C(F)F)o4)cn3)nn2)ccc1F [Compound 23, 1-(5-(1-((5-(5-(difluoromethyl)-1,3,4-oxadiazol-2-yl)pyridin-2-yl)methyl)-1H-1,2,3-triazol-4-yl)-2-fluorophenyl)-N,N-dimethylmethanamine]	> 50	2702
Fc1ccc(-c2cn(Cc3ccc(-c4nnc(C(F)F)o4)cn3)nn2)cc1CN1CCCCC1 [Compound 24, 2-(difluoromethyl)-5-(6-((4-(4-fluoro-3-(piperidin-1-ylmethyl)phenyl)-1H-1,2,3-triazol-1-yl)methyl)pyridin-3-yl)-1,3,4-oxadiazole]	> 50	2577

The remaining lines, values ahead:

IC50 [1] [µM]	HDAC6 selectivity (fold) [2] [fold]	Structure (SMILES)
> 50	2252	FC(F)c1nnc(-c2ccc(Cn3cc(-c4ccc(CN5CCC5)cn4)nn3)nc2)o1 [Compound 2, 2-(6-((4-(5-(azetidin-1-ylmethyl)pyridin-2-yl)-1H-1,2,3-triazol-1-yl)methyl)pyridin-3-yl)-5-(difluoromethyl)-1,3,4-oxadiazole]
> 50	1428	CC1CCN(Cc2ccc(-c3cn(Cc4ccc(-c5nnc(C(F)F)o5)cn4)nn3)nc2)CC1 [Compound 4, 2-(difluoromethyl)-5-(6-((4-(5-((4-methylpiperidin-1-yl)methyl)pyridin-2-yl)-1H-1,2,3-triazol-1-yl)methyl)pyridin-3-yl)-1,3,4-oxadiazole]
> 50	1547	FC(F)c1nnc(-c2ccc(Cn3cc(-c4ccc(CN5CC[C@@H](F)C5)nc4)nn3)nc2)o1 [Compound 5, (R)-2-(difluoromethyl)-5-(6-((4-(6-((3-fluoropyrrolidin-1-yl)methyl)pyridin-3-yl)-1H-1,2,3-triazol-1-yl)methyl)pyridin-3-yl)-1,3,4-oxadiazole]
> 50	1730	CC1(C)CCN(Cc2ccc(-c3cn(Cc4ccc(-c5nnc(C(F)F)o5)cn4)nn3)cn2)CC1 [Compound 6, 2-(difluoromethyl)-5-(6-((4-(6-((4,4-dimethylpiperidin-1-yl)methyl)pyridin-3-yl)-1H-1,2,3-triazol-1-yl)methyl)pyridin-3-yl)-1,3,4-oxadiazole]
> 50	1253	FC(F)c1nnc(-c2ccc(Cn3cc(-c4ccc(CN5CC[C@H](F)C5)s4)nn3)nc2)o1 [Compound 7, (S)-2-(difluoromethyl)-5-(6-((4-(5-((3-fluoropyrrolidin-1-yl)methyl)thiophen-2-yl)-1H-1,2,3-triazol-1-yl)methyl)pyridin-3-yl)-1,3,4-oxadiazole]
> 50	1048	FC(F)c1nnc(-c2ccc(Cn3cc(-c4ccc(CN5CC[C@@H](F)C5)s4)nn3)nc2)o1 [Compound 8, (R)-2-(difluoromethyl)-5-(6-((4-(5-((3-fluoropyrrolidin-1-yl)methyl)thiophen-2-yl)-1H-1,2,3-triazol-1-yl)methyl)pyridin-3-yl)-1,3,4-oxadiazole]
> 50	1893	FC(F)c1nnc(-c2ccc(Cn3cc(-c4csc(CN5CC[C@H](F)C5)c4)nn3)nc2)o1 [Compound 13, (S)-2-(difluoromethyl)-5-(6-((4-(5-((3-fluoropyrrolidin-1-yl)methyl)thiophen-3-yl)-1H-1,2,3-triazol-1-yl)methyl)pyridin-3-yl)-1,3,4-oxadiazole]
> 50	1811	FC(F)c1nnc(-c2ccc(Cn3cc(-c4csc(CN5CC[C@@H](F)C5)c4)nn3)nc2)o1 [Compound 14, (R)-2-(difluoromethyl)-5-(6-((4-(5-((3-fluoropyrrolidin-1-yl)methyl)thiophen-3-yl)-1H-1,2,3-triazol-1-yl)methyl)pyridin-3-yl)-1,3,4-oxadiazole]
> 50	3401	Fc1ccc(-c2cn(Cc3ccc(-c4nnc(C(F)F)o4)cn3)nn2)cc1CN1CCCC1 [Compound 22, 2-(difluoromethyl)-5-(6-((4-(4-fluoro-3-(pyrrolidin-1-ylmethyl)phenyl)-1H-1,2,3-triazol-1-yl)methyl)pyridin-3-yl)-1,3,4-oxadiazole]
> 50	2890	CC1CCN(Cc2cc(-c3cn(Cc4ccc(-c5nnc(C(F)F)o5)cn4)nn3)ccc2F)CC1 [Compound 25, 2-(difluoromethyl)-5-(6-((4-(4-fluoro-3-((4-methylpiperidin-1-yl)methyl)phenyl)-1H-1,2,3-triazol-1-yl)methyl)pyridin-3-yl)-1,3,4-oxadiazole]
